# Experimental data: US6660771B1, “Remedies for liver regeneration of transplanted liver” (Chugai Seiyaku Kabushiki Kaisha, priority 1999, dated 2003)
# System: partial liver transplant
# Assay: Liver regeneration-promoting effect in rat 30% orthotopic partial liver transplantation
# Type: in vivo
# Settings: for Relative liver gain: (liver weight on day 5) / (liver weight on day 0); for Relative liver gain / Liver weight gain: transfusion 50 ml/kg/day up to day 5, mean±SD; for Liver weight gain: (liver weight on day 5) − (liver weight on day 0)
# Experimental: Male Wistar rats at 8 weeks of age (240-280g; 8-9 animals per group) were used for 30% orthotopic partial liver transplantation. Isolation of the liver from donors was performed as follows. Animals were abdominally incised under ether anesthesia and about 70% of the liver was resected and the common bile duct and arteries were separated immediately before starting liver perfusion with cold physiological saline from the portal vein. After starting perfusion, the remaining liver with the portal vein and the posterior vena cava-was removed from the donor animal. Recipients were abdominally incised under Nembutal anesthesia and the whole liver was resected and the upper end of the posterior vena cava of the graft was continuously sutured (7-0 proline) with the proximal end of the posterior vena cava of the recipients. The donor posterior vena cava of the graft was sutured end-to-end with that of the recipient, and the portal vein and common bile duct of the graft were anastomosed with those of the recipient, respectively, by the cuff technique. The operation period was 45 minutes on average, the […] period was within 900 seconds, and the total period for cold-storing the graft was 1 hour. Immediately after the operation was completed, a catheter was inserted from the jugular vein. The catheter was passed through the subcutaneous tunnel across both scapulae, and connected to a swivel through a protective coil after a harness was put on the animal. Rats were transferred to a metabolic cage and divided into the following two groups and continuously pumped with the transfusion formula at an administration rate of 50 ml/kg/day up to day 5. Valine group: An aqueous solution of L-valine (Japanese Pharmacopoeia) at 3.376% was transfused in combination with glucose at 5% on the day of operation and 20% on days 1-5. Control group: A solution of a 10% amino acid blend formula (Moripron F® made by Roussel Morishita Co., Ltd.) diluted in distilled water at a total nitrogen level equivalent to that of the valine group was transfused in combination with glucose at 5% on the day of operation and 20% on days 1-5. Animals were given free access to normal feed and water. On day 5, animals were abdominally incised under ether anesthesia and blood was collected from the abdominal aorta and the liver was separated after bleeding. Serum protein (TP), albumin (ALB), GOT, GPT and LDH and the liver weight were determined. The resected liver was fixed with formalin to prepare a hematoxylin-eosin stained sample for histological tests. The measurement results were expressed in mean±SD and statistically analyzed by the Mann-Whitney U test to show a significant difference if p<0.05. Liver weight gain and relative liver gain were determined as morphologic indications of the liver-regenerating effect. Here, the liver weight gain means (liver weight on day 5)-(liver weight on day 0), and the relative liver gain means (liver weight on day 5)/(liver weight on day 0). Not the liver weight itself but the liver weight gain was chosen as indication because liver transplants vary in weight and the difference between the weight of each liver transplant (weight on day 0) and the weight of the regenerated transplant (weight on day 5) more appropriately indicates changes in the transplant.
structure (smiles),measurement,setting,value
"CC(C)[C@H](N)C(=O)O [Valine, L-valine]",Relative liver gain,,2.24 ± 0.18
same,Relative liver gain,listed as valine,2.24±0.18
same,Liver weight gain,,3.88 ± 0.66 g
same,Liver weight gain,listed as valine,3.88 ± 0.66 g
same,Histopathological tests of the regenerated liver,"day 5, hematoxylin-eosin stained sample",No abnormal observation
same,Edema or necrosis of hepatocytes,"day 5, histology of regenerated liver",Neither control group nor valine group showed edema or necrosis
same,Liver weight (g) on day 5,"male Wistar rats, continuous i.v. transfusion 50 ml/kg/day up to day 5, mean±SD",7.05 ± 0.99 g
same,Liver weight (g) on day 0,"male Wistar rats, graft weight on day of transplantation (baseline), mean±SD",3.16 ± 0.45 g
same,"Biochemical blood tests (TP, ALB, GOT, GPT, LDH)","serum on day 5, valine group vs control group",No significant difference
